Data reported in patent US8802664B2 (Bioproject, priority 2010, dated 2014).

target: T1, human H4 receptor (Homo sapiens, UniProt Q9H3N8); experiment: [3H]Histamine binding on membranes of CHO cells stably expressing human H4 receptor; conditions: not given
T1 construct: expressed in transfected cells
How it was run: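 Membranes from sub-confluent CHO-hH4 cells, 20 μg protein per well, were incubated in 50 mM Tris/HCl, 0.5 mM EDTA, pH 7.4. Nonspecific binding was defined with 10 μM JNJ 7777120. Bound radioactivity was collected on PEI-soaked GF/B filters and counted by liquid scintillation.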

Structure (SMILES)	Ki or IC50 activity class
CN1CCC(NC(c2ccccc2)c2nc3ccccc3s2)CC1 (stereo not shown) [Example 9, (benzothiazol-2-yl-phenylmethyl)(1-methylpiperidin-4-yl)amine]	< 30 nM
CN1CCC(OC(c2cccc(C#CCCNC(=N)NC(=O)OC(C)(C)C)c2)c2nc3ccccc3[nH]2)CC1 (stereo not shown) [Example 307, N-tert-butoxycarbonyl-N′-(4-{3-[(1H-benzimidazol-2-yl)(1-methylpiperidin-4-yloxy)methyl]phenyl}but-3-ynyl)guanidine]	< 1000 nM
CN1CCC(OC(c2cccc(OCCN3CCCCC3)c2)c2nc3ccccc3[nH]2)CC1 (stereo not shown) [Example 356, 2-{(1-methylpiperidin-4-yloxy)[3-(2-piperidin-1-yl-ethoxy)phenyl]methyl}-1H-benzimidazole]	< 1000 nM
CCOC(=O)n1c(C(OC2CCN(C)CC2)c2cc(OC(F)(F)F)ccc2F)nc2ccccc21 (stereo not shown) [Example 553]	< 1000 nM
CCCCOc1cccc(C(NC2CCN(C)CC2)c2nc3ccccc3[nH]2)c1 (stereo not shown) [Example 69, [(1H-benzimidazol-2-yl)(3-butoxyphenyl)methyl](1-methylpiperidin-4-yl)amine]	< 30 nM
CCCCCOc1cccc(C(NC2CCN(C)CC2)c2nc3ccccc3[nH]2)c1 (stereo not shown) [Example 95, [(1H-benzimidazol-2-yl)(3-pentyloxyphenyl)methyl](1-methylpiperidin-4-yl)amine]	< 30 nM
CN1CCC(OC(c2cccc(CCCCCNC(=N)NC(=O)OC(C)(C)C)c2)c2nc3ccccc3[nH]2)CC1 (stereo not shown) [Example 335, N-tert-butoxycarbonyl-N′-(-{3-[(1H-benzimidazol-2-yl)(1-methylpiperidin-4-yloxy)methyl]phenyl}pentyl)guanidine]	< 300 nM

Now from value to compound:

Ki or IC50 activity class	Structure (SMILES)
< 30 nM	COc1cccc(COc2cccc(C(OC3CCN(C)CC3)c3nc4ccccc4s3)c2)c1 (stereo not shown) [Example 185, 2-[[3-(3-methoxybenzyloxy)phenyl](1-methylpiperidin-4-yloxy)methyl]benzothiazole]
< 30 nM	CN1CCC(OC(c2cccc(SCCCN)c2)c2nc3ccccc3s2)CC1 (stereo not shown) [Example 314, 3-{3-[benzothiazol-2-yl(1-methylpiperidin-4-yloxy)methyl]phenylsulfanyl}propylamine]
< 30 nM	CN1CCC(OC(c2cccc(SCCO)c2)c2nc3ccccc3s2)CC1 (single isomer, unassigned) [Example 229, 2-{3-[benzothiazol-2-yl(1-methylpiperidin-4-yloxy)methyl]phenylsulfanyl}ethanol]
< 300 nM	CN1CCC(OC(c2cccc(CCCCCCNC(=N)N)c2)c2nc3ccccc3s2)CC1 (stereo not shown) [Example 363, N-(6-{3-[benzothiazol-2-yl(1-methylpiperidin-4-yloxy)methyl]phenyl}hexyl)guanidine]
< 1000 nM	CN1CCC(OC(c2cccc(C=CS(C)(=O)=O)c2)c2nc3ccccc3s2)CC1 (stereo not shown) [Example 212, 2-[[3-(2-methanesulfonylvinyl)phenyl](1-methylpiperidin-4-yloxy)methyl]benzothiazole]
< 300 nM	CN1CCC(OC(c2cccc(NCc3ccccc3)c2)c2nc3ccccc3s2)CC1 (stereo not shown) [Example 234, {3-[benzothiazol-2-yl(1-methylpiperidin-4-yloxy)methyl]phenyl}benzyl-amine]
< 1000 nM	CN1CCC(OC(c2cccc(N3CCCC3CO)c2)c2nc3ccccc3s2)CC1 (stereo not shown) [Example 323, (1-{3-[benzothiazol-2-yl(1-methylpiperidin-4-yloxy)methyl]phenyl}pyrrolidin-2-yl)methanol]
< 30 nM	CN1CCC(NC(c2cccc(OCc3cccc(F)c3)c2)c2nc3ccccc3[nH]2)CC1 (stereo not shown) [Example 105, {(1H-benzimidazol-2-yl)[3-(3-fluorobenzyloxy)phenyl]methyl}(1-methylpiperidin-4-yl)amine]

same assay, conditions: human H4 receptor; evaluated in the GTPγ[35S] assay or in the [3H]histamine binding assay (not stated which per compound); Ki or IC50 class

Ki or IC50 activity class	Structure (SMILES)
< 30 nM	CN1CCC(OC(c2cccc(N3CCC(F)C3)c2)c2nc3ccccc3s2)CC1 (stereo not shown) [Example 454]
